How the values were obtained:
Ctenocephalides felis = experiment: Flea (Ctenocephalides felis) Membrane Feed Assay-Adult; conditions: adult fleas fed on treated citrated bovine blood, knockdown and/or death at 24 hours, lowest dose causing mortality ≥50%, read-out: Minimum Effective Concentration (MEC)
Procedure: Flea (Ctenocephalides felis) Membrane Feed Assay-Adult
Compounds of the present invention were dissolved in DMSO and aliquots added to citrated bovine blood in membrane covered wells pre-warmed to 37° C. Adult fleas were newly emerged (3-7 days) and unfed. Feeding wells containing approximately 10 adult fleas were placed onto the treated blood wells, and the fleas were allowed to feed on the treated blood for 24 hours. […] Each compound was tested at half-log intervals, and endpoint data was recorded as Minimum Effective Concentration (MEC) in μM. MEC is a subjective visual assessment of organism viability, and is the lowest dose observed to cause mortality≧50%.

Ornithidorus turicata = experiment: Soft Tick (Ornithidorus turicata) Blood Feed Assay; conditions: nymphs fed on treated citrated bovine blood; knockdown and/or death at 24 and 72 hours
Procedure: Soft Tick (Ornithidorus turicata) Blood Feed Assay
Compounds were dissolved in DMSO and aliquots were added to citrated bovine blood in membrane covered wells warmed to 37° C. 5 nymphs were placed on the membrane, allowed to feed to repleation, and were placed in observation wells. […] Endpoint results for subjective visual assessment of organism viability were recorded as LD100 (the lowest dose to cause 100% mortality).

Aedes aeqypti = experiment: Mosquito (Aedes aeqypti) Larval Assay - 1st Instar Larvae; conditions: first instar larvae, 25° C., motility at 24 hours, lowest dose to inhibit motility ≥50% of untreated controls, read-out: Minimum Effective Concentration (MEC)
Procedure: Mosquito (Aedes aeqypti) Larval Assay—1st Instar Larvae
Compounds were dissolved in DMSO and aliquots were spotted to empty wells. First instar larvae and maintenance media were added to the wells to obtain between 8 and 12 larvae per well in the appropriate final assay volume. Larvae were incubated in the treated media at 25° C. for 24 hours. Mosquito larvae motility was measured at 24 hours. Each compound was tested at half-log intervals, and endpoint results were recorded as Minimum Effective Concentration (MEC) in μM. MEC is an objective assessment of organism motility, and is the lowest dose to inhibit motility≧50% of untreated controls.

| Compound | minimal effective concentration (Ctenocephalides felis) [µM] | LD100 (the lowest dose to cause 100% mortality) (Ornithidorus turicata) [µg/mL] | minimal effective concentration (Aedes aeqypti) [µM] |
| --- | --- | --- | --- |
| CS(=O)(=O)CC(=O)N1CC2(C1)OCc1cc(C3=NOC(c4cc(Cl)cc(Cl)c4)(C(F)(F)F)C3)cnc12 (stereo not drawn) [Example 1, 3′-[5-(3,5-dichlorophenyl)-5-(trifluoromethyl)-4,5-dihydroisoxazol-3-yl]-1-[(methylsulfonyl)acetyl]-5′H-spiro[azetidin-3,7′-furo[3,4,b]pyridine]] | 3 | 0.1 | 0.1 |
| CS(=O)(=O)CC(=O)N1CC2(C1)OCc1cc(C3=NOC(c4cc(Cl)c(F)c(Cl)c4)(C(F)(F)F)C3)cnc12 (stereo not drawn) [Example 2, 3′-[5-(3,5-dichloro-4-fluorophenyl)-5-(trifluoromethyl)-4,5-dihydroisoxazol-3-yl]-1-[(methylsulfonyl)acetyl]-5′H-spiro[azetidin-3,7-furo[3,4,b]pyridine]] | 1 | 0.3 | 0.03 |
| CS(=O)(=O)CC(=O)N1CC2(C1)OCc1cc(C3=NOC(c4cc(Cl)c(Cl)c(Cl)c4)(C(F)(F)F)C3)cnc12 (stereo not drawn) [Example 3, 1-[(methylsulfonyl)acetyl]-3′-[5-(3,4,5-trichlorophenyl)-5-(trifluoromethyl)-4,5-dihydroisoxazol-3-yl]-5′H-spiro[azetidin-3,7′-furo[3,4,b]pyridine]] | 1 | 0.3 | 0.03 |
| CC(C)C(=O)N1CC2(C1)OCc1cc(C3=NOC(c4cc(Cl)c(F)c(Cl)c4)(C(F)(F)F)C3)cnc12 (stereo not drawn) [Example 4, 3′-[5-(3,5-dichloro-4-fluorophenyl)-5-(trifluoromethyl)-4,5-dihydroisoxazol-3-yl]-1-isobutyryl-5′ H-spiro[azetidin-3,7′-furo[3,4,b]pyridine]] | 0.1 | 0.03 | 0.01 |
| CC(C)C(=O)N1CC2(C1)OCc1cc(C3=NOC(c4cc(Cl)cc(Cl)c4)(C(F)(F)F)C3)cnc12 (stereo not drawn) [Example 5, 3′-[5-(3,5-dichlorophenyl)-5-(trifluoromethyl)-4,5-dihydroisoxazol-3-yl]-1-isobutyryl-5′H-spiro[azetidin-3,7′-furo[3,4,b]pyridine]] | 1 | 0.03 | 0.03 |
| CC(C)C(=O)N1CC2(C1)OCc1cc(C3=NOC(c4cc(Cl)c(Cl)c(Cl)c4)(C(F)(F)F)C3)cnc12 (stereo not drawn) [Example 6, 1-isobutyryl-3′-[5-(3,4,5-trichlorophenyl)-5-(trifluoromethyl)-4,5-dihydroisoxazol-3-yl]-5′H-spiro[azetidin-3,7′-furo[3,4,b]pyridine]] | 1 | 0.03 | 0.01 |
| CS(=O)(=O)CC(=O)N1CC2(C1)OCc1nc(C3=NOC(c4cc(Cl)c(F)c(Cl)c4)(C(F)(F)F)C3)ccc12 (stereo not drawn) [Example 7, 1-(2′-(5-(3,5-dichloro-4-fluorophenyl)-5-(trifluoromethyl)-4,5-dihydroisoxazol-3-yl)-7′H-spiro[azetidine-3,5′-furo[3,4-b]pyridine]-1-yl)-2-(methylsulfonyl)ethanone] |  |  | 0.3 |
| CS(=O)(=O)CC(=O)N1CC2(C1)OCc1nc(C3=NOC(c4cc(Cl)cc(Cl)c4)(C(F)(F)F)C3)ccc12 (stereo not drawn) [Example 8, 1-(2′-(5-(3,5-dichlorophenyl)-5-(trifluoromethyl)-4,5-dihydroisoxazol-3-yl)-7′H-spiro[azetidine-3,5′-furo[3,4-b]pyridine]-1-yl)-2-(methylsulfonyl)ethanone] |  |  | 0.3 |
| CS(=O)(=O)CC(=O)N1CC2(C1)OCc1nc(C3=NOC(c4cc(Cl)c(Cl)c(Cl)c4)(C(F)(F)F)C3)ccc12 (stereo not drawn) [Example 9, 2-(methylsulfonyl)-1-(2′-(5-(3,4,5-trichlorophenyl)-5-(trifluoromethyl)-4,5-dihydroisoxazol-3-yl)-7′H-spiro[azetidine-3,5′-furo[3,4-b]pyridine]-1-yl)ethanone] |  |  | 0.3 |
| CC(C)C(=O)N1CC2(C1)OCc1nc(C3=NOC(c4cc(Cl)c(F)c(Cl)c4)(C(F)(F)F)C3)ccc12 (stereo not drawn) [Example 10, 1-(2′-(5-(3,5-dichloro-4-fluorophenyl)-5-(trifluoromethyl)-4,5-dihydroisoxazol-3-yl)-7′H-spiro[azetidine-3,5′-furo[3,4-b]pyridine]-1-yl)-2-methylpropan-1-one] | 3 | 0.1 | 0.03 |
| CC(C)C(=O)N1CC2(C1)OCc1nc(C3=NOC(c4cc(Cl)cc(Cl)c4)(C(F)(F)F)C3)ccc12 (stereo not drawn) [Example 11, 1-(2′-(5-(3,5-dichlorophenyl)-5-(trifluoromethyl)-4,5-dihydroisoxazol-3-yl)-7′H-spiro[azetidine-3,5′-furo[3,4-b]pyridine]-1-yl)-2-methylpropan-1-one] |  | 0.3 | 0.3 |
| CC(C)C(=O)N1CC2(C1)OCc1nc(C3=NOC(c4cc(Cl)c(Cl)c(Cl)c4)(C(F)(F)F)C3)ccc12 (stereo not drawn) [Example 12, 2-methyl-1-(2′-(5-(3,4,5-trichlorophenyl)-5-(trifluoromethyl)-4,5-dihydroisoxazol-3-yl)-7′H-spiro[azetidine-3,5′-furo[3,4-b]pyridine]-1-yl)propan-1-one] |  | 0.3 | 0.1 |
| CS(=O)(=O)CC(=O)N1CC2(C1)OCc1cc(C3=NOC(c4cc(Cl)c(F)c(Cl)c4)(C(F)(F)F)C3)ncc12 (stereo not drawn) [Example 13, 1-(6′-(5-(3,5-dichloro-4-fluorophenyl)-5-(trifluoromethyl)-4,5-di hydroisoxazol-3-yl)-1′H-spiro[azetidine-3,3′-furo[3,4-c]pyridine]-1-yl)-2-(methylsulfonyl)ethanone] | 1 | 0.1 | 0.01 |
| CS(=O)(=O)CC(=O)N1CC2(C1)OCc1cc(C3=NOC(c4cc(Cl)c(Cl)c(Cl)c4)(C(F)(F)F)C3)ncc12 (stereo not drawn) [Example 14, 2-(methylsulfonyl)-1-(6′-(5-(3,4,5-trichlorophenyl)-5-(trifluoromethyl)-4,5-dihydroisoxazol-3-yl)-1′H-spiro[azetidine-3,3′-furo[3,4-c]pyridine]-1-yl)ethanone] | 1 | 0.3 | 0.01 |
| CS(=O)(=O)CC(=O)N1CC2(C1)OCc1cc(C3=NOC(c4cc(Cl)cc(Cl)c4)(C(F)(F)F)C3)ncc12 (stereo not drawn) [Example 15, 1-(6′-(5-(3,5-dichlorophenyl)-5-(trifluoromethyl)-4,5-dihydroisoxazol-3-yl)-1′H-spiro[azetidine-3,3′-furo[3,4-c]pyridine]-1-yl)-2-(methylsulfonyl)ethanone] | 3 |  | 0.03 |
| CC(C)C(=O)N1CC2(C1)OCc1cc(C3=NOC(c4cc(Cl)c(F)c(Cl)c4)(C(F)(F)F)C3)ncc12 (stereo not drawn) [Example 16, 1-(6′-(5-(3,5-dichloro-4-fluorophenyl)-5-(trifluoromethyl)-4,5-dihydroisoxazol-3-yl)-1′H-spiro[azetidine-3,3′-furo[3,4-c]pyridine]-1-yl)-2-methylpropan-1-one] | 0.1 | 0.03 | 0.001 |
| CC(C)C(=O)N1CC2(C1)OCc1cc(C3=NOC(c4cc(Cl)c(Cl)c(Cl)c4)(C(F)(F)F)C3)ncc12 (stereo not drawn) [Example 17, 2-methyl-1-(6′-(5-(3,4,5-trichlorophenyl)-5-(trifluoromethyl)-4,5-dihydroisoxazol-3-yl)-1′H-spiro[azetidine-3,3′-furo[3,4-c]pyridine]-1-yl)propan-1-one] | 0.1 | 0.03 | 0.01 |
| CC(C)C(=O)N1CC2(C1)OCc1cc(C3=NOC(c4cc(Cl)cc(Cl)c4)(C(F)(F)F)C3)ncc12 (stereo not drawn) [Example 18, 1-(6′-(5-(3,5-dichlorophenyl)-5-(trifluoromethyl)-4,5-dihydroisoxazol-3-yl)-1′H-spiro[azetidine-3,3′-furo[3,4-c]pyridine]-1-yl)-2-methylpropan-1-one] | 0.3 | 0.03 | 0.01 |
